Test system: T1, TsCF1 (cathepsin F-like protease)
T1 construct: gene Tsp_02382
Assay: fluorescence endpoint assay, Z-Phe-Arg-AMC hydrolysis at pH […] min preincubation with inhibitor
Format: biochemical, Trichinella spiralis

CC(C)C[C@H](NC(=O)[C@H]1O[C@@H]1C(=O)O)C(=O)NCCCCN=C(N)N [E-64]
IC50: 136 ± 16.9 nM

— article PMC4687129, “Molecular characterization of a cathepsin F-like protease in Trichinella spiralis” (Parasites & Vectors, 2015)
